Data taken from patent US9834530B2, “3-furyl-2-cyano-2-acrylamide derivative, preparation method therefor, pharmaceutical composition and use thereof” (JENKEM TECHNOLOGY CO., LTD. (BEIJING), priority 2013, dated 2017).

Legend:
[1] = system: AD fruit flies (elav/Y; UAS-Aβ42/+; P35*H29.3); assay: Pavlovian olfactory learning test in AD fruit flies (anti-senile dementia effect); format: in vivo; settings: for PI (mean value), learning and memory index: AD flies (P35*H29.3) given drug, final concentration 100 μM, 50 μl, day 2 to day 8, immediate memory tested day 9, PI=0 no memory, PI=100 all remember; for anti-senile dementia effect (in words, from Table 1): AD flies, T test against AD flies without administration: P>0.05, P<0.05 or P<0.01; for anti-senile dementia effect compared with JKF-006, JKF-027 and JKF-011: transgenic AD fruit flies, comparison with compounds of WO2012/103282
Procedure: In all tests, w^1118 (isoCJ1) was used as a control gene system, referred to as the “2U”. Progeny fruit flies with disease carrying P35 and H29.3 were obtained by integration of fruit flies carrying elav-GAL4^c155 (referred to as P35) and fruit flies carrying Aβ42 (UAS-Aβ42; referred to as H29.3). The first generation of fruit flies obtained by hybridization was used for behavioral testing. Details as follows:
All the fruit flies were reared in an environment with a temperature of 24° C., relative humidity of 40% RH. On the first day, newborn male 2U*H29.3 fruit flies and male AD fruit flies were picked out and put into glass bottles (there were about 120 fruit flies in each bottle). During administration period, these fruit flies were placed in an environment with a temperature of 28° C., relative humidity of 42% RH. From the second day to the eighth day, the fruit flies were transferred into new glass bottles 4 hours later after administration. All the fruit flies were placed in an environment with a temperature of 28° C., relative humidity of 42% RH until 1 hour before Pavlovian olfactory learning test.
On the first day of eclosion dispensation of drugs was conducted, the second day administration was carried out. The respective initial amount of compounds JK-01A, JK-03A, JK-05A, JK-06A and JK-07A was 10 mg, and the final concentration was 100 μM. Each group had two glass bottles of flies which were administered 50 μl within seven days (from the second day to the eighth day). During administration period, since some fruit flies died naturally or for other causes, about 100 flies were remained in each bottle when Pavlovian olfactory test was conducted on the ninth day.
The fruit flies were placed on the automatic training device for training. In training, a group of about 100 flies first contacted with one kind of odor (octanol or methyl cyclohexanol) accompanied by electric shocks (an electric shock of 60 V for 3.5 s at 1.5-s intervals) for 60 s, rested at 45-s intervals, and then contacted with another kind of odor (methyl cyclohexanol or octanol) without electric shocks for 60 s. To test the “immediate memory” (also called “learning”), flies after the training were immediately sent to the T-maze choice point, and allowed to choose between two kinds of odor, the learning and memory index PI (Performance index) in every test was calculated according to the number of flies choosing each kind of odor. PI=0 represented 50:50, meaning that fruit flies could not remember the odor accompanied by electric shocks, PI=100 represented that 100% of the flies remembered the odor accompanied by electric shocks. Learning test was carried out in a darkroom with a temperature of 25° C., relative humidity of 70% RH. The fruit flies entered the darkroom to be familiar with the environment 1 hour before test.
The test data was analyzed and plotted by employing GraphPad Prism.
In the activity test, the olfactory short-term memory impairment tests of healthy flies with the same genetic background and without administration, AD flies without administration, AD flies administrated positive or negative control drugs and AD flies administrated test drugs were carried out at the same time, their learning and memory indexes were calculated, and the learning and memory index of AD flies administrated test drugs was compared with those of healthy flies with the same genetic background, AD flies, AD flies administrated positive or negative control drugs to evaluate the anti-senile dementia effect of test compounds. A relatively higher learning and memory index of AD flies administrated test drugs represented a stronger anti-senile dementia effect of test compounds. […]

[2] = system: ICR mice; assay: Preliminary acute toxicity test; format: in vivo; settings: given twice 3 hours apart, 14 days observation
Procedure: Method: in the acute toxicity test, ICR mice were used and divided into six groups for administration, with 10 mice in each group and half male and half female. […] The control group was administrated the same volume of vehicle. Observation was conducted for 14 consecutive days after administration.

SMILES	PI (mean value), learning and memory index [1]	anti-senile dementia effect (in words, from Table 1) [1]	anti-senile dementia effect compared with JKF-006, JKF-027 and JKF-011 [1]	Test result (acute toxicity) ([2]; 6000 mg/kg/d p.o.)	Test result (acute toxicity) ([2]; 4000 mg/kg/d p.o.)	Test result (acute toxicity) ([2]; 5000 mg/kg/d p.o.)
COCCOCCOCc1ccc(/C=C(\C#N)C(=O)Nc2ccc(F)cc2)o1 [JK-06A, 2-cyano-N-(4-fluorophenyl)-3-[5-(2,5,8-trioxa-nonyl-1-yl)furan-2-yl]-2-acrylamide]	67	significant anti-senile dementia effects	more significant anti-senile dementia effects	No death,		
N#CC(=Cc1ccc(COCCOCCOCCO)o1)C(=O)NCCc1c[nH]c2ccccc12 [JK-07A, 2-cyano-N-[2-(1H-3-indolyl)ethyl]-3-[5-(1,4,7,10-tetraoxa-undecane-11-yl)furan-2-yl]-2-acrylamide]	58	significant anti-senile dementia effects	more significant anti-senile dementia effects		No death,	
N#C/C(=C/c1ccc(CO)o1)C(=O)Nc1ccc(F)cc1 [JK-01A, 2-cyano-N-(4-fluorophenyl)-3-(5-hydroxymethyl-2-furyl)-2-acrylamide]	65	significant anti-senile dementia effects	more significant anti-senile dementia effects		No death,	
N#C/C(=C\c1ccc(-c2cc(C(=O)O)ccc2Cl)o1)C(=O)Nc1ccc(F)cc1 [JKF-006, reference compound]	37	equivalent anti-senile dementia effects				
CC(/C=C/C=C(\C)C(=O)O)=C\C=C\C=C(C)\C=C\C=C(/C)C(=O)O [Crocetin, reference compound]	40	equivalent anti-senile dementia effects				
C#Cc1cccc(Nc2ncnc3cc(OCCOC)c(OCCOC)cc23)c1 [Erlotinib, reference compound]	48	had anti-senile dementia effects				
Cc1nc(Nc2ncc(C(=O)Nc3c(C)cccc3Cl)s2)cc(N2CCN(CCO)CC2)n1 [Dasatinib, reference compound]	56					
N#C/C(=C\c1ccc(NCCOCCO)o1)C(=O)NCCc1c[nH]c2ccccc12 [JK-05A, 2-cyano-N-[2-(1H-3-indolyl)ethyl]-3-{5-[2-(2-hydroxyethoxy)ethylamino]-2-furyl}-2-acrylamide]	40	equivalent anti-senile dementia effects				No death,
N#C/C(=C\c1ccc(CO)o1)C(=O)NCCc1c[nH]c2ccccc12 [JK-03A, 2-cyano-N-[2-(1H-indol-3-yl)ethyl]-3-(5-hydroxymethyl-2-furyl)-2-acrylamide]	56	significant anti-senile dementia effects	more significant anti-senile dementia effects	No death,		
N#C/C(=C\c1ccc(N2CCOCC2)o1)C(=O)NCCc1c[nH]c2ccccc12 [JKF-027, reference compound]	54	had anti-senile dementia effects				
